{"source": "the supplement of paper PMC10307832", "assay_in_all_cases": "relative viability (nuclei count vs DMSO), 5 days (fraction); higher = more cells survive", "key": {"[1]": {"test_system": "NCI-H1355", "in_short": "(§1)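 One day after seeding in 1536-well plates, lung cancer cell lines were dosed by pin tool. Dosing was either single-drug or a fixed anchor-drug dose plus five library-drug doses (not always all listed) in √10 steps. After 5 days, nuclei were stained in one fix-and-stain step and counted on 4× images, and relative viability is the nuclei count of treated wells over that of vehicle wells, given as the median of duplicate plates.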"}, "[2]": {"test_system": "UMC-11", "in_short": "as §1"}, "[3]": {"test_system": "NCI-H1563", "in_short": "as §1"}, "[4]": {"test_system": "NCI-H1651", "in_short": "as §1"}, "[5]": {"test_system": "LCLC-97TM1", "in_short": "as §1"}, "[6]": {"test_system": "ChaGo-K-1", "in_short": "as §1"}, "[7]": {"test_system": "HCC-44", "in_short": "as §1"}, "[8]": {"test_system": "NCI-H650", "in_short": "as §1"}, "[9]": {"test_system": "EPLC-272H", "in_short": "as §1"}, "[10]": {"test_system": "NCI-H2405", "in_short": "as §1"}, "[11]": {"test_system": "LCLC-103H", "in_short": "as §1"}, "[12]": {"test_system": "NCI-H322M", "in_short": "as §1"}, "[13]": {"test_system": "HCC-827", "in_short": "as §1"}, "[14]": {"test_system": "NCI-H520", "in_short": "as §1"}, "[15]": {"test_system": "NCI-H2087", "in_short": "as §1"}, "[16]": {"test_system": "NCI-H2085", "in_short": "as §1"}, "[17]": {"test_system": "EMC-BAC-2", "in_short": "as §1"}, "[18]": {"test_system": "H3255", "in_short": "as §1"}, "[19]": {"test_system": "NCI-H2023", "in_short": "as §1"}}}
{"smiles": "O=C(O)c1ccc(-c2c[nH]c3ncc(-c4ccccc4)cc23)cc1C1CCCC1", "note": "+ CC(C)C[C@H](NC(=O)[C@H](Cc1ccccc1)NC(=O)c1cnccn1)B(O)O [Bortezomib] (partner 0.002 µM)", "values": [{"measurement": "relative viability", "setting": "[1]; first compound 0.04 µM", "result": 1.18}, {"measurement": "relative viability", "setting": "[1]; first compound 0.1265 µM", "result": 1.29}, {"measurement": "relative viability", "setting": "[1]; first compound 0.4 µM", "result": 1.22}, {"measurement": "relative viability", "setting": "[1]; first compound 1.265 µM", "result": 1.04}, {"measurement": "relative viability", "setting": "[2]; first compound 0.04 µM", "result": 0.747}, {"measurement": "relative viability", "setting": "[2]; first compound 0.1265 µM", "result": 0.764}, {"measurement": "relative viability", "setting": "[2]; first compound 0.4 µM", "result": 0.666}, {"measurement": "relative viability", "setting": "[2]; first compound 1.265 µM", "result": 0.519}, {"measurement": "relative viability", "setting": "[3]; first compound 0.04 µM", "result": 0.832}, {"measurement": "relative viability", "setting": "[3]; first compound 0.1265 µM", "result": 0.869}, {"measurement": "relative viability", "setting": "[3]; first compound 0.4 µM", "result": 0.907}, {"measurement": "relative viability", "setting": "[3]; first compound 1.265 µM", "result": 0.931}, {"measurement": "relative viability", "setting": "[4]; first compound 0.04 µM", "result": 0.879}, {"measurement": "relative viability", "setting": "[4]; first compound 0.1265 µM", "result": 0.984}, {"measurement": "relative viability", "setting": "[4]; first compound 0.4 µM", "result": 0.983}, {"measurement": "relative viability", "setting": "[4]; first compound 1.265 µM", "result": 0.855}, {"measurement": "relative viability", "setting": "[5]; first compound 0.04 µM", "result": 0.835}, {"measurement": "relative viability", "setting": "[5]; first compound 0.1265 µM", "result": 1.03}, {"measurement": "relative viability", "setting": "[5]; first compound 0.4 µM", "result": 0.763}, {"measurement": "relative viability", "setting": "[5]; first compound 1.265 µM", "result": 0.403}, {"measurement": "relative viability", "setting": "[6]; first compound 0.04 µM", "result": 1.08}, {"measurement": "relative viability", "setting": "[6]; first compound 0.1265 µM", "result": 1.16}, {"measurement": "relative viability", "setting": "[6]; first compound 0.4 µM", "result": 0.917}, {"measurement": "relative viability", "setting": "[6]; first compound 1.265 µM", "result": 1.21}, {"measurement": "relative viability", "setting": "[7]; first compound 0.04 µM", "result": 0.945}, {"measurement": "relative viability", "setting": "[7]; first compound 0.1265 µM", "result": 0.866}, {"measurement": "relative viability", "setting": "[7]; first compound 0.4 µM", "result": 0.886}, {"measurement": "relative viability", "setting": "[7]; first compound 1.265 µM", "result": 0.908}, {"measurement": "relative viability", "setting": "[8]; first compound 0.04 µM", "result": 0.746}, {"measurement": "relative viability", "setting": "[8]; first compound 0.1265 µM", "result": 0.895}, {"measurement": "relative viability", "setting": "[8]; first compound 0.4 µM", "result": 0.858}, {"measurement": "relative viability", "setting": "[8]; first compound 1.265 µM", "result": 0.5}, {"measurement": "relative viability", "setting": "[9]; first compound 0.04 µM", "result": 0.755}, {"measurement": "relative viability", "setting": "[9]; first compound 0.1265 µM", "result": 1.13}, {"measurement": "relative viability", "setting": "[9]; first compound 0.4 µM", "result": 0.931}, {"measurement": "relative viability", "setting": "[9]; first compound 1.265 µM", "result": 1.01}, {"measurement": "relative viability", "setting": "[10]; first compound 0.04 µM", "result": 0.989}, {"measurement": "relative viability", "setting": "[10]; first compound 0.1265 µM", "result": 1.03}, {"measurement": "relative viability", "setting": "[10]; first compound 0.4 µM", "result": 0.916}, {"measurement": "relative viability", "setting": "[10]; first compound 1.265 µM", "result": 0.819}, {"measurement": "relative viability", "setting": "[11]; first compound 0.04 µM", "result": 1.11}, {"measurement": "relative viability", "setting": "[11]; first compound 0.1265 µM", "result": 1.15}, {"measurement": "relative viability", "setting": "[11]; first compound 0.4 µM", "result": 1}, {"measurement": "relative viability", "setting": "[11]; first compound 1.265 µM", "result": 1.05}, {"measurement": "relative viability", "setting": "[12]; first compound 0.04 µM", "result": 1.25}, {"measurement": "relative viability", "setting": "[12]; first compound 0.1265 µM", "result": 1.32}, {"measurement": "relative viability", "setting": "[12]; first compound 0.4 µM", "result": 1.33}, {"measurement": "relative viability", "setting": "[12]; first compound 1.265 µM", "result": 1.23}, {"measurement": "relative viability", "setting": "[13]; first compound 0.04 µM", "result": 0.982}, {"measurement": "relative viability", "setting": "[13]; first compound 0.1265 µM", "result": 1.18}, {"measurement": "relative viability", "setting": "[13]; first compound 0.4 µM", "result": 1.02}, {"measurement": "relative viability", "setting": "[13]; first compound 1.265 µM", "result": 0.884}, {"measurement": "relative viability", "setting": "[14]; first compound 0.04 µM", "result": 0.567}, {"measurement": "relative viability", "setting": "[14]; first compound 0.1265 µM", "result": 0.717}, {"measurement": "relative viability", "setting": "[14]; first compound 0.4 µM", "result": 0.482}, {"measurement": "relative viability", "setting": "[14]; first compound 1.265 µM", "result": 0.327}, {"measurement": "relative viability", "setting": "[15]; first compound 0.04 µM", "result": 0.963}, {"measurement": "relative viability", "setting": "[15]; first compound 0.1265 µM", "result": 0.902}, {"measurement": "relative viability", "setting": "[15]; first compound 0.4 µM", "result": 0.715}, {"measurement": "relative viability", "setting": "[15]; first compound 1.265 µM", "result": 0.565}, {"measurement": "relative viability", "setting": "[16]; first compound 0.04 µM", "result": 1.08}, {"measurement": "relative viability", "setting": "[16]; first compound 0.1265 µM", "result": 1.07}, {"measurement": "relative viability", "setting": "[16]; first compound 0.4 µM", "result": 1.02}, {"measurement": "relative viability", "setting": "[16]; first compound 1.265 µM", "result": 0.896}, {"measurement": "relative viability", "setting": "[17]; first compound 0.04 µM", "result": 1.02}, {"measurement": "relative viability", "setting": "[17]; first compound 0.1265 µM", "result": 1.16}, {"measurement": "relative viability", "setting": "[17]; first compound 0.4 µM", "result": 1.02}, {"measurement": "relative viability", "setting": "[17]; first compound 1.265 µM", "result": 1.04}, {"measurement": "relative viability", "setting": "[18]; first compound 0.04 µM", "result": 1.12}, {"measurement": "relative viability", "setting": "[18]; first compound 0.1265 µM", "result": 0.972}, {"measurement": "relative viability", "setting": "[18]; first compound 0.4 µM", "result": 0.833}, {"measurement": "relative viability", "setting": "[18]; first compound 1.265 µM", "result": 0.732}, {"measurement": "relative viability", "setting": "[19]; first compound 0.04 µM", "result": 1.04}, {"measurement": "relative viability", "setting": "[19]; first compound 0.1265 µM", "result": 1.08}, {"measurement": "relative viability", "setting": "[19]; first compound 0.4 µM", "result": 1.09}, {"measurement": "relative viability", "setting": "[19]; first compound 1.265 µM", "result": 0.699}]}
